The values below come from US8354395B2, “Method for providing neuroprotection from spinal muscular atrophy” (Trophos, priority 2003, dated 2013).

Series [1] relates to striatal neurons expressing truncated mutated huntingtin. The experiment in a line: protection of striatal neurons from death induced by overexpression of a mutated form of huntingtin. Format: cell-based. The conditions noted are these: 1 μM in 0.5% DMSO; 7 days; compared with medium supplemented with BDNF. The procedure:
Primary cultures of striatal neurons are prepared as described in the literature (Primary striatal neuronal culture, Mao L. et al., Methods Mol. Med., 2003, 79:379-86). […] A second expression vector containing the DNA coding the green fluorescent protein (GFP) also undergoes electroporation and serves as a reporter gene. The DNA of the plasmid coding the huntingtin was prepared by purification with cesium chloride. The plasmid containing the GFP sequence was prepared on Qiagen columns. The integrity of the DNA sequences is verified by sequencing, transfection and western blotting. The cells which survive the electroporation are inoculated at a density of 4000 cells per well of a 96-well plate. The culture takes place in Neurobasal medium (GIBCO) complimented with pyruvate and B-27 (Beckton Dickinson). The cells are maintained in culture for 7 days without changing the medium.
The treatments with the compounds to be tested are carried out just after the inoculation at a final concentration of 1 μM in 0.5% of dimethyl sulphoxide (DMSO). The positive controls are carried out by the addition of BDNF at 5 ng/ml final. The negative controls only receive 0.5% DMSO.
Cell death is evaluated after the 7 days by counting the number of living cells expressing the GFP.
The activity of the compounds to be tested was evaluated by their capacity to prevent the death of the striatal neurons cultured in the neurobasal medium compared with the survival of the striatal neurons in medium supplemented with BDNF (Brain-Derived Neurotrophic Factor).

The subject of another series is rat motor neurons. As to the kind of experiment: in vitro model of trophic deprivation of rat motor neurons (survival, calcein fluorescence). Format: cell-based. Particulars: 3 days in basal medium, compared with medium supplemented with neurotrophic factors, ratio > 0 = positive effect.
For a further series, the system named is GABAA receptors. As to the kind of experiment: electrophysiology in vitro with rat neurons (slices of hippocampus on MEA, sensitive neurons in patch clamp). Format: cell-based. The conditions noted are these: for effect on the stimulating GABAA transmission (postsynaptic field potentials, CA1): slices of hippocampus, 20 μM bicuculline, 50 μM picrotoxin, 1-10 μM diazepam, 10-1000 nM steroids. The procedure: Electrophysiological experiments were carried out in vitro with rat neurons (slices of hippocampus, neurons sensitive in culture), as follows:
The experiments are carried out with hippocampi removed from rats of the Sprague Dawley strain aged from 10 to 21 days. The animals are sacrificed by decapitation, and their brain is rapidly transferred into ACSF (Artificial Cerebro-Spinal Fluid) without sodium (composition: 2 mM KCl, 1.2 mM NaH2PO4, 2 mM MgCl2, 0.5 mM CaCl2, 26 mM NaHCO3, 11 mM glucose, 250 mM saccharose), maintained at a temperature of 4° C. and carbogen (a 95% O2, 5% CO2 mixture) is bubbled through. The hippocampi are extracted from each cerebral hemisphere then cut up into slices of […] thickness using a “tissue chopper”. The slices are left to rest in ACSF medium (composition: 126 mM NaCl, 2 mM KCl, 1.2 mM NaH2PO4, 2 mM MgCl2, 0.5 mM CaCl2, 26 mM NaHCO3, 11 mM glucose) at ambient temperature, at least one hour before recording. Using a pipette, one slice is then deposited on a multi-electrode recording system (MEA, MultiChannel Systems™, Germany) and positioned so as to cover the […]. In order to avoid any change in position by the perfusion flow, a grid weighted down by a platinum <<U>> is positioned on the slice. The MEA is then rapidly inserted into the recording system and the chamber perfused with ACSF with carbogen bubbled through; the middle of the chamber is connected to earth. The perfused ACSF as well as the MEA are maintained at a temperature of 37° C. One of the 60 electrodes is selected as a stimulation electrode. A biphasic stimulation current with an intensity of 300 μA over 0.1 ms is generated from this electrode at a rate of one stimulation every 30 seconds. The responses produced are seen simultaneously at the level of the 59 other electrodes of the MEA. The axons of the Schaeffer collaterals are stimulated in the CA3. In the CA1 region, 6 to 12 electrodes are selected in order to record the field potentials which correspond to the sum of the variations of the postsynaptic potentials of the neurons situated close to each electrode. The molecules tested are dissolved in the ACSF medium (the final concentration of DMSO is ≦0.1%) and carried over onto the slice by means of the perfusion system.
The sensitive rat neurons are cultured for 1 to 2 days and then recorded with the patch clamp technique as described in De Roo M. et al. (Dehydroepiandrosterone potentiates native ionotropic ATP receptors containing the P2X2 subunit in rat sensory neurones, J Physiol, 2003, 552:59-71).
On the technique in general: The patch-clamp technique gives a direct electrical read-out from membranes.

The nature of series [2]: toxicological study in mice. Format: in vivo. The conditions noted are these: oral, sub-cutaneous, intra-peritoneal and intravenous routes, up to 300 mg/kg/day, daily up to 28 days.
The test system of series [3] is motor neurons of the nucleus of the facial nerve. As to the kind of experiment: axotomy of the facial nerve in new-born rats, count of motor neurons of the facial nucleus. Type of series: in vivo, rat. Particulars: axotomized new-born rats; dose between 3 and 100 mg/kg according to the administration route; compared with the nerve which is not sectioned. How it is done: An axotomy of the facial nerve is performed on new-born young rats of 2-3 days old. The animals receive the cholest-4-en-3-one oxime 4 hours before the unilateral section of the nerve then daily for 5 days by sub-cutaneous route. Seven days after the section of the nerve, the animals are anaesthetized, then fixed by intra-cardial perfusion of paraformaldehyde. The brain is then removed and placed in paraffin. The histological analysis of compound sections of 7 μm of the nucleus of the facial nerve, stained with cresyl violet, allows the number of motor neurons of the intact side as well as of the side of the nerve which has been sectioned to be counted (Casanovas et al., Prevention by lamotrigine, MK-801 and N omega-nitro-L-arginine methyl ester of motoneuron cell death after neonatal axotomy, Neuroscience, 1996, 71, 313-325).

Experimental for rat motor neurons: The spinal cord of E14 rat embryos is dissected and the ventral part is isolated by trituration after trypsination. […] The cells are centrifuged on a density gradient. The motor neurons are enriched in the fraction of the large cells (the least dense). The cells of this fraction are incubated with an anti-p75 antibody, a surface antigen present on the motor neurons. Secondary antibodies coupled with magnetic balls are added and the mixture of cells is passed through a column in a magnet (Arce et al., 1999). Only the motor neurons are retained: their purity is of the order of 90%.
The motor neurons are inoculated at low density in culture wells on a substrate of polyornithine-laminin in a neurobasal medium supplemented according to Raoul et al., 1999, Programmed cell death of embryonic motor neurons triggered through the Fas death receptor. […] Negative controls (absence of trophic factors) and positive controls (in the presence of BDNF (Brain-Derived Neurotrophic Factor) at 1 ng/ml, GDNF (Glial-Derived Neurotrophic Factor) at 1 ng/ml and CNTF (Ciliary Neurotrophic Factor) at 10 ng/ml, marketed by the American company PEPROTECH, Inc. and the Sigma-Aldrich company, are included in each series.
The compounds to be tested are added 60 minutes after the inoculation and the cultures are maintained at 37° C. under 5% CO2 for 3 days.
After 3 days, the survival is evaluated by a fluorescence measurement after incubation of the cells in the presence of calcein which becomes fluorescent in the living cells.
The activity of the compounds to be tested was evaluated according to their capacity to prevent the death of the motor neurons when they are added to the neurobasal medium compared with the survival of the motor neurons in medium supplemented with neurotrophic factors.
This survival rate is expressed by a number, the ratio.

On to `CC(C)CCC[C@@H](C)[C@H]1CC[C@H]2[C@@H]3CCC4=CC(=NO)CC[C@]4(C)[C@H]3CC[C@]12C` [Compound 1, Cholest-4-en-3-one oxime], for which, in series [1], the “Ratio (survival of striatal neurons)” value came out at 0.3. Also, the “Ratio (survival rate of the motor neurons)” value in the series with rat motor neurons (5 μM) is given as 1. The “blocking of the effect of positive allosteric modulators of the GABAA receptors” value in the series with GABAA receptors (allopregnanolone or tetrahydrodeoxycorticosterone as modulators, dose-dependent, concentrations equivalent to those with neurotrophic effects in vitro) is “capable of blocking”. Besides, the “effect on the GABAA receptors, compound alone” value in the series with GABAA receptors (tested alone up to 10 μM, slice of hippocampus or sensitive neurons) was “no effect”. The toxicity entry in series [2] is “did not show significant toxicity”. Besides, the “increase of survival of the motor neurons of the nucleus of the facial nerve” value in series [3] is recorded as “up to 40%”.
On to `CC(C)CCC[C@@H](C)[C@H]1CC[C@H]2[C@@H]3CCC4=CC(=NO)C=C[C@]4(C)[C@H]3CC[C@]12C` [Compound 2, 1,4-cholestadien-3-one oxime], for which, in the series with rat motor neurons (5 μM), the “Ratio (survival rate of the motor neurons)” value is on record as 0.6.
On to `CC(C)=CCC[C@@H](C)[C@H]1CC[C@H]2[C@@H]3CCC4=CC(=O)CC[C@]4(C)[C@H]3CC[C@]12C` [Compound 4, Cholest-4,24-dien-3-one], for which the “Ratio (survival of striatal neurons)” value in series [1] worked out at 0.2.
Consider `CC(C)=CCC[C@@H](C)[C@H]1CC[C@H]2[C@@H]3CCC4=CC(=NO)CC[C@]4(C)[C@H]3CC[C@]12C` [Compound 6, 4,24-cholestadien-3-one oxime], for which the “Ratio (survival rate of the motor neurons)” value in the series on rat motor neurons (5 μM) is given as 0.5.
Turning to `CC(C)CC=C[C@@H](C)[C@H]1CC[C@H]2[C@@H]3CCC4=CC(=NO)CC[C@]4(C)[C@H]3CC[C@]12C` [Compound 7, 4,22-cholestadien-3-one oxime], the “Ratio (survival rate of the motor neurons)” value in the series with rat motor neurons (6 μM) was 0.25.
As for `CC[C@H](CC[C@@H](C)[C@H]1CC[C@H]2[C@@H]3CCC4=CC(=NO)CC[C@]4(C)[C@H]3CC[C@]12C)C(C)C` [Compound 8, 4-stigmasta-ene-3-one oxime], the “Ratio (survival rate of the motor neurons)” value in the series on rat motor neurons (10 μM) was 0.3.
On to `CC(C)CCC[C@@H](C)[C@H]1CC[C@H]2[C@@H]3CC[C@]4(O)CC(=O)CC[C@]4(C)[C@H]3CC[C@]12C` [Compound 9, 5-beta-hydroxy-cholestan-3-one], for which the “Ratio (survival of striatal neurons)” value in series [1] is 0.5. The “Ratio (survival rate of the motor neurons)” value in the series on rat motor neurons (1 μM) is listed as 0.5.
As for `CC(C)CCC[C@@H](C)[C@H]1CC[C@H]2[C@@H]3C=C[C@H]4CC(=O)CC[C@]4(C)[C@H]3CC[C@]12C` [Compound 11, 5-alpha-cholest-6-en-3-one], the “Ratio (survival of striatal neurons)” value in series [1] worked out at 0.3.
On to `CC(C)C(C)C=C[C@@H](C)[C@H]1CC[C@H]2[C@@H]3C=CC4=CC(=O)CC[C@]4(C)[C@H]3CC[C@]12C` (stereo partly shown) [Compound 12, 24-methylcholest-4,6,22-trien-3-one], for which the “Ratio (survival of striatal neurons)” value in series [1] is 0.3.
Consider `CC(C)[C@@H](C)C=C[C@@H](C)[C@H]1CC[C@H]2[C@@H]3C=CC4=CC(=NO)CC[C@]4(C)[C@H]3CC[C@]12C` [Compound 15, 4.6, 22-ergosta-trien-3-one oxime], for which the “Ratio (survival rate of the motor neurons)” value in the series with rat motor neurons (5 μM) is on record as 0.2.
`CC(C)CCC[C@@H](C)[C@H]1CC[C@H]2[C@@H]3C=CC4=CC(=NO)C=C[C@]4(C)[C@H]3CC[C@]12C` [Compound 17, 1.4,6-cholesta-trien-3-one oxime]: the “Ratio (survival rate of the motor neurons)” value in the series with rat motor neurons (5 μM) is reported as 0.3.
`CC(=O)[C@H]1CC[C@H]2[C@@H]3CC[C@H]4C[C@H](O)CC[C@]4(C)[C@H]3CC[C@]12C` [allopregnanolone, 3α-hydroxy-5α-pregnan-20-one]: the “effect on chlorine currents produced by isoguvacine” value in the series with GABAA receptors (sensitive neurons, patch-clamp) is “potentialized”. Moreover, in the series with GABAA receptors, the “effect on the stimulating GABAA transmission (postsynaptic field potentials, CA1)” value is recorded as “potentialized”.
Consider `CN1C(=O)CN=C(c2ccccc2)c2cc(Cl)ccc21` [diazepam], for which the “effect on the stimulating GABAA transmission (postsynaptic field potentials, CA1)” value in the series on GABAA receptors was “potentialized”.
Same read-out and setting: under `C[C@]12CC[C@@H](O)C[C@@H]1CC[C@@H]1[C@@H]2CC[C@]2(C)[C@@H](C(=O)CO)CC[C@@H]12` [tetrahydrodeoxycorticosterone] stands “potentialized”; under picrotoxin, “blocked”.
